Test results reported in article PMC11675717, “Evolutionary Adaptations in Biliverdin Reductase B: Insights into Coenzyme Dynamics and Catalytic Efficiency” (International Journal of Molecular Sciences, 2024).
Changes are numbered by the printed parent chain. Read-outs that look alike come from different tables or passages of the source.

Key:
human BLVRB [1] = biological target: T1, human BLVRB (Homo sapiens, UniProt P30043); assay: NMR titration ([…]-HSQC); assay type: binding
T1 construct: pET21
T1 sequence (P30043 2-206): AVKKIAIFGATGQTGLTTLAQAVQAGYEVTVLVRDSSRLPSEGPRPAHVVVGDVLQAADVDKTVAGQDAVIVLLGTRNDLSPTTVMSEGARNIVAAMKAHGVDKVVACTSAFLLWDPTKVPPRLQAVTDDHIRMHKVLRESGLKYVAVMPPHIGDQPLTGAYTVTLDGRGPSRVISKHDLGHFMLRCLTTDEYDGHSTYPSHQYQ

hyrax BLVRB = biological target: T2, hyrax BLVRB; assay: NMR titration ([…]-HSQC); design: species or system Procavia capensis; conditions: holo form, bis-tris pH 6.5, 20 °C, 900 MHz
T2 construct: pET21

human BLVRB [2] = biological target: T3, human BLVRB (Homo sapiens, UniProt P30043, T164S); assay: isothermal titration calorimetry; assay type: binding
T3 construct: pET21
T3 sequence (P30043 2-206 T164S): T1 sequence (P30043 2-206) with T163S
From the text: (§1) isothermal titration calorimetry on human BLVRB

human BLVRB [3] = biological target: T1, human BLVRB; assay: isothermal titration calorimetry; assay type: binding
From the text: as §1

Aedes aegypti BLVRB = biological target: T4, Aedes aegypti BLVRB (Aedes aegypti, UniProt Q16FC8); assay: NMR spectra ([…]-HSQC) apo versus NADP+; assay type: binding; conditions: complex unstable over hours at room temperature
T4 construct: gene 5565330
T4 sequence (Q16FC8 1-205): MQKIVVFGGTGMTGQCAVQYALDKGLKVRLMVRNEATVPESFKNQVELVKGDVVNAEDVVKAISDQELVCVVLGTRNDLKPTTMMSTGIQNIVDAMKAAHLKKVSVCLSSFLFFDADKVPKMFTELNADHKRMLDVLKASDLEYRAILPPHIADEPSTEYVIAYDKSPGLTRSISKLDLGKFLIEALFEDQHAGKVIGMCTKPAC

human BLVRB [4] = biological target: T1, human BLVRB; assay: NMR titration ([…]-HSQC); conditions: bis-tris pH 6.5; weak binding

Molecule `C=CC1=C(C)/C(=C/c2[nH]c(Cc3[nH]c(/C=C4\NC(=O)C(C)=C4CCC(=O)O)c(CCC(=O)O)c3C)c(C)c2C=C)NC1=O` (mixture of isomers) [bilirubin-β] has a Kd (human BLVRB [1]; read-out: binding affinity) of 26.8 ± 9.1 µM and a Kd (hyrax BLVRB; NADP+ 1 mM, read-out: binding affinity) of 19.5 ± 7.4 µM.
`NC(=O)C1=CN([C@@H]2O[C@H](COP(=O)(O)OP(=O)(O)OC[C@H]3O[C@@H](n4cnc5c(N)ncnc54)[C@H](OP(=O)(O)O)[C@@H]3O)[C@@H](O)[C@H]2O)C=CC1` [NADPH] was tested, and the Kd (human BLVRB [2]; read-out: Kd (nM) with NADPH) was 110 ± 10 nM and the Kd (human BLVRB [3]; read-out: Kd (nM) with NADPH) was 130 ± 10 nM.
Work on `Cc1cc2nc3c(=O)[nH]c(=O)nc-3n(C[C@H](O)[C@H](O)[C@H](O)COP(=O)(O)OP(=O)(O)OC[C@H]3O[C@@H](n4cnc5c(N)ncnc54)[C@H](O)[C@@H]3O)c2cc1C` [FAD] yielded a Kd (human BLVRB [1]; read-out: Kd) of 283 ± 13.5 µM and a Kd (hyrax BLVRB; read-out: Kd) of 496 ± 22.6 µM.
For `NC(=O)c1ccc[n+]([C@@H]2O[C@H](COP(=O)(O)OP(=O)(O)OC[C@H]3O[C@@H](n4cnc5c(N)ncnc54)[C@H](OP(=O)(O)O)[C@@H]3O)[C@@H](O)[C@H]2O)c1` [NADP^+], the “NMR spectra (15N-HSQC) apo versus NADP+” value (Aedes aegypti BLVRB) was “gave rise to good dispersion upon NADP^+ binding”, the Kd (human BLVRB [2]; read-out: Kd (nM) with NADP^+) was 130 ± 10 nM and the Kd (human BLVRB [3]; read-out: Kd (nM) with NADP^+) was 190 ± 5 nM.
`C=CC1=C(C)/C(=C/c2[nH]c(Cc3[nH]c(/C=C4\NC(=O)C(C)=C4C=C)c(C)c3CCC(=O)O)c(CCC(=O)O)c2C)NC1=O` [BR-α] was tested, and the binding affinity (human BLVRB [4]) was “a titration of human BLVRB with BR-α revealed an expected weak binding affinity”.
